Data from patent publication US11498899B2, “Nitrone herbicides” (FMC Corporation, priority 2016, dated 2022).

How the values were obtained:
[1] = tested on: barnyardgrass (Echinochloa crus-galli); assay: Test A preemergence, visual injury rating 0-100 (0 no effect, 100 complete control); format: in vivo; conditions: for Barnyardgrass plant response rating (0 to 100 scale): 125 g ai/ha
Excerpt: (§1) Seeds of plant species selected from barnyardgrass (Echinochloa crus-galli), kochia (Kochia scoparia), ragweed (common ragweed, Ambrosia elatior), ryegrass, Italian (Italian ryegrass, Lolium multiflorum), foxtail, giant (giant foxtail, Setaria faberii), foxtail, green (green foxtail, Setaria viridis), and pigweed (Amaranthus retroflexus) were planted into a blend of loam soil and sand and treated preemergence with a directed soil spray using test chemicals formulated in a non-phytotoxic solvent mixture which included a surfactant.
(§2) At the same time, plants selected from these weed species and also wheat (Triticum aestivum), corn (Zea mays), blackgrass (Alopecurus myosuroides), and galium (catchweed bedstraw, Galium aparine) were planted in pots containing the same blend of loam soil and sand and treated with postemergence applications of test chemicals formulated in the same manner. Plants ranged in height from 2 to 10 cm and were in the one- to two-leaf stage for the postemergence treatment. Treated plants and untreated controls were maintained in a greenhouse for approximately 10 days, after which time all treated plants were compared to untreated controls and visually evaluated for injury. […] A dash (-) response means no test result.

[2] = tested on: foxtail, giant (giant foxtail, Setaria faberii); assay: Test A preemergence, visual injury rating 0-100; format: in vivo; conditions: for Foxtail, Giant plant response rating (0 to 100 scale): 125 g ai/ha
Excerpt: as §1, §2

kochia (Kochia scoparia) [3] = assay: Test A preemergence, visual injury rating 0-100; format: in vivo; conditions: for Kochia plant response rating (0 to 100 scale): 125 g ai/ha
Excerpt: as §1, §2

[4] = tested on: pigweed (Amaranthus retroflexus); assay: Test A preemergence, visual injury rating 0-100; format: in vivo; conditions: for Pigweed plant response rating (0 to 100 scale): 125 g ai/ha
Excerpt: as §1, §2

[5] = tested on: ragweed (common ragweed, Ambrosia elatior); assay: Test A preemergence, visual injury rating 0-100; format: in vivo; conditions: for Ragweed plant response rating (0 to 100 scale): 125 g ai/ha
Excerpt: as §1, §2

[6] = tested on: ryegrass, Italian (Italian ryegrass, Lolium multiflorum); assay: Test A preemergence, visual injury rating 0-100; format: in vivo; conditions: for Ryegrass, Italian plant response rating (0 to 100 scale): 125 g ai/ha
Excerpt: as §1, §2

[7] = tested on: barnyardgrass (Echinochloa crus-galli); assay: Test A postemergence, visual injury rating 0-100; format: in vivo; conditions: 0 to 100 scale
Excerpt: as §1, §2

[8] = tested on: blackgrass (Alopecurus myosuroides); assay: Test A postemergence, visual injury rating 0-100; format: in vivo; conditions: 0 to 100 scale
Excerpt: as §1, §2

corn (Zea mays) = assay: Test A postemergence, visual injury rating 0-100; format: in vivo; conditions: 0 to 100 scale
Excerpt: as §1, §2

[9] = tested on: foxtail, giant (giant foxtail, Setaria faberii); assay: Test A postemergence, visual injury rating 0-100; format: in vivo; conditions: 0 to 100 scale
Excerpt: as §1, §2

[10] = tested on: galium (catchweed bedstraw, Galium aparine); assay: Test A postemergence, visual injury rating 0-100; format: in vivo; conditions: 0 to 100 scale
Excerpt: as §1, §2

kochia (Kochia scoparia) [11] = assay: Test A postemergence, visual injury rating 0-100; format: in vivo; conditions: 0 to 100 scale
Excerpt: as §1, §2

[12] = tested on: pigweed (Amaranthus retroflexus); assay: Test A postemergence, visual injury rating 0-100; format: in vivo; conditions: 0 to 100 scale
Excerpt: as §1, §2

[13] = tested on: ragweed (common ragweed, Ambrosia elatior); assay: Test A postemergence, visual injury rating 0-100; format: in vivo; conditions: 0 to 100 scale
Excerpt: as §1, §2

[14] = tested on: ryegrass, Italian (Italian ryegrass, Lolium multiflorum); assay: Test A postemergence, visual injury rating 0-100; format: in vivo; conditions: 0 to 100 scale
Excerpt: as §1, §2

[15] = tested on: wheat (Triticum aestivum); assay: Test A postemergence, visual injury rating 0-100; format: in vivo; conditions: 0 to 100 scale
Excerpt: as §1, §2

[16] = tested on: ducksalad (Heteranthera limosa); assay: Test B flooded paddy test, visual rating 0-100; conditions: Flood, 250 g ai/ha, applied to paddy water, rated after 13 to 15 days
[17] = tested on: barnyardgrass (Echinochloa crus-galli); assay: Test B flooded paddy test, visual rating 0-100; conditions: Flood, 250 g ai/ha, applied to paddy water, rated after 13 to 15 days
rice (Oryza sativa) = assay: Test B flooded paddy test, visual rating 0-100 (0 no effect, 100 complete control); conditions: Flood, 250 g ai/ha, applied to paddy water, rated after 13 to 15 days
[18] = 31 g ai/ha, 0 to 100 scale (0 no effect, 100 complete control), approx. 10 days

## CC1=[N+]([O-])C(C(=O)Nc2cccc(F)c2F)C(c2c(F)cccc2Cl)C1 (racemic) [Compound 14]
[1]
  Barnyardgrass plant response rating (0 to 100 scale): 0
[1]; 500 g ai/ha, 0 to 100 scale
  Barnyardgrass plant response rating: 0
[2]
  Foxtail, Giant plant response rating (0 to 100 scale): 0
[2]; 500 g ai/ha, 0 to 100 scale
  Foxtail, Giant plant response rating: 0
Kochia (Kochia scoparia) [3]
  Kochia plant response rating (0 to 100 scale): 0
Kochia (Kochia scoparia) [3]; 500 g ai/ha, 0 to 100 scale
  Kochia plant response rating: 0
[4]
  Pigweed plant response rating (0 to 100 scale): 0
[4]; 500 g ai/ha, 0 to 100 scale
  Pigweed plant response rating: 0
[5]
  Ragweed plant response rating (0 to 100 scale): 0
[5]; 500 g ai/ha, 0 to 100 scale
  Ragweed plant response rating: 0
[6]
  Ryegrass, Italian plant response rating (0 to 100 scale): 0
[6]; 500 g ai/ha, 0 to 100 scale
  Ryegrass, Italian plant response rating: 0
[7]; 125 g ai/ha
  Barnyardgrass plant response rating: 0
[7]; 500 g ai/ha
  Barnyardgrass plant response rating: 0
[8]; 125 g ai/ha
  Blackgrass plant response rating: 0
[8]; 500 g ai/ha
  Blackgrass plant response rating: 0
Corn (Zea mays); 125 g ai/ha
  Corn plant response rating: 0
Corn (Zea mays); 500 g ai/ha
  Corn plant response rating: 0
[9]; 125 g ai/ha
  Foxtail, Giant plant response rating: 0
[9]; 500 g ai/ha
  Foxtail, Giant plant response rating: 0
[10]; 125 g ai/ha
  Galium plant response rating: 0
[10]; 500 g ai/ha
  Galium plant response rating: 0
Kochia (Kochia scoparia) [11]; 125 g ai/ha
  Kochia plant response rating: 0
Kochia (Kochia scoparia) [11]; 500 g ai/ha
  Kochia plant response rating: 0
[12]; 125 g ai/ha
  Pigweed plant response rating: 0
[12]; 500 g ai/ha
  Pigweed plant response rating: 0
[13]; 125 g ai/ha
  Ragweed plant response rating: 0
[13]; 500 g ai/ha
  Ragweed plant response rating: 0
[14]; 125 g ai/ha
  Ryegrass, Italian plant response rating: 0
[14]; 500 g ai/ha
  Ryegrass, Italian plant response rating: 0
[15]; 125 g ai/ha
  Wheat plant response rating: 0
[15]; 500 g ai/ha
  Wheat plant response rating: 0
[16]
  Ducksalad plant response rating (0 to 100 scale): 20
[17]
  Barnyardgrass plant response rating (0 to 100 scale): 40
Rice (Oryza sativa)
  Rice plant response rating (0 to 100 scale): 0

## CC1=[N+]([O-])C(C(=O)Nc2cccc(F)c2F)C(c2cccc(C)c2)C1 (racemic) [Compound 15]
[1]
  Barnyardgrass plant response rating (0 to 100 scale): 100
[1]; 500 g ai/ha, 0 to 100 scale
  Barnyardgrass plant response rating: 100
[2]
  Foxtail, Giant plant response rating (0 to 100 scale): 100
[2]; 500 g ai/ha, 0 to 100 scale
  Foxtail, Giant plant response rating: 100
Kochia (Kochia scoparia) [3]
  Kochia plant response rating (0 to 100 scale): 0
Kochia (Kochia scoparia) [3]; 500 g ai/ha, 0 to 100 scale
  Kochia plant response rating: 30
[4]
  Pigweed plant response rating (0 to 100 scale): 0
[4]; 500 g ai/ha, 0 to 100 scale
  Pigweed plant response rating: 0
[5]
  Ragweed plant response rating (0 to 100 scale): 0
[5]; 500 g ai/ha, 0 to 100 scale
  Ragweed plant response rating: 90
[6]
  Ryegrass, Italian plant response rating (0 to 100 scale): 0
[6]; 500 g ai/ha, 0 to 100 scale
  Ryegrass, Italian plant response rating: 50
[7]; 125 g ai/ha
  Barnyardgrass plant response rating: 90
[7]; 500 g ai/ha
  Barnyardgrass plant response rating: 90
[8]; 125 g ai/ha
  Blackgrass plant response rating: 0
[8]; 500 g ai/ha
  Blackgrass plant response rating: 30
Corn (Zea mays); 125 g ai/ha
  Corn plant response rating: 60
Corn (Zea mays); 500 g ai/ha
  Corn plant response rating: 90
[9]; 125 g ai/ha
  Foxtail, Giant plant response rating: 80
[9]; 500 g ai/ha
  Foxtail, Giant plant response rating: 90
[10]; 125 g ai/ha
  Galium plant response rating: 0
[10]; 500 g ai/ha
  Galium plant response rating: 30
Kochia (Kochia scoparia) [11]; 125 g ai/ha
  Kochia plant response rating: 0
Kochia (Kochia scoparia) [11]; 500 g ai/ha
  Kochia plant response rating: 30
[12]; 125 g ai/ha
  Pigweed plant response rating: 0
[12]; 500 g ai/ha
  Pigweed plant response rating: 40
[13]; 125 g ai/ha
  Ragweed plant response rating: 0
[13]; 500 g ai/ha
  Ragweed plant response rating: 50
[14]; 125 g ai/ha
  Ryegrass, Italian plant response rating: 30
[14]; 500 g ai/ha
  Ryegrass, Italian plant response rating: 50
[15]; 125 g ai/ha
  Wheat plant response rating: 40
[15]; 500 g ai/ha
  Wheat plant response rating: 50
[16]
  Ducksalad plant response rating (0 to 100 scale): 95
[17]
  Barnyardgrass plant response rating (0 to 100 scale): 85
Rice (Oryza sativa)
  Rice plant response rating (0 to 100 scale): 15

## CC1=[N+]([O-])C(C(=O)Nc2cccc(F)c2F)C(c2ccc(F)c(Oc3ccc(F)cn3)c2)C1 (racemic) [Compound 48]
[1]; [18]
  Barnyardgrass plant response rating: 0
[1]
  Barnyardgrass plant response rating (0 to 100 scale): 90
[2]; [18]
  Foxtail, Giant plant response rating: 0
[2]
  Foxtail, Giant plant response rating (0 to 100 scale): 90
Kochia (Kochia scoparia) [3]; [18]
  Kochia plant response rating: 0
Kochia (Kochia scoparia) [3]
  Kochia plant response rating (0 to 100 scale): 0
[4]; [18]
  Pigweed plant response rating: 0
[4]
  Pigweed plant response rating (0 to 100 scale): 0
[5]; [18]
  Ragweed plant response rating: 0
[5]
  Ragweed plant response rating (0 to 100 scale): 0
[6]; [18]
  Ryegrass, Italian plant response rating: 0
[6]
  Ryegrass, Italian plant response rating (0 to 100 scale): 20
[7]; 31 g ai/ha
  Barnyardgrass plant response rating: 0
[7]; 125 g ai/ha
  Barnyardgrass plant response rating: 0
[8]; 31 g ai/ha
  Blackgrass plant response rating: 30
[8]; 125 g ai/ha
  Blackgrass plant response rating: 70
Corn (Zea mays); 31 g ai/ha
  Corn plant response rating: 0
Corn (Zea mays); 125 g ai/ha
  Corn plant response rating: 0
[9]; 31 g ai/ha
  Foxtail, Giant plant response rating: 0
[9]; 125 g ai/ha
  Foxtail, Giant plant response rating: 0
[10]; 31 g ai/ha
  Galium plant response rating: 20
[10]; 125 g ai/ha
  Galium plant response rating: 40
Kochia (Kochia scoparia) [11]; 31 g ai/ha
  Kochia plant response rating: 0
Kochia (Kochia scoparia) [11]; 125 g ai/ha
  Kochia plant response rating: 0
[12]; 31 g ai/ha
  Pigweed plant response rating: 0
[12]; 125 g ai/ha
  Pigweed plant response rating: 30
[13]; 31 g ai/ha
  Ragweed plant response rating: 0
[13]; 125 g ai/ha
  Ragweed plant response rating: 30
[14]; 31 g ai/ha
  Ryegrass, Italian plant response rating: 30
[14]; 125 g ai/ha
  Ryegrass, Italian plant response rating: 30
[15]; 31 g ai/ha
  Wheat plant response rating: 0
[15]; 125 g ai/ha
  Wheat plant response rating: 0
[16]
  Ducksalad plant response rating (0 to 100 scale): 70
[17]
  Barnyardgrass plant response rating (0 to 100 scale): 20
Rice (Oryza sativa)
  Rice plant response rating (0 to 100 scale): 10
